Like-named read-outs stand apart in the source and are kept apart here.
What was measured:
[1] = target: T1, purified catalytic domain of recombinant human TACE (rhTACEc) (Homo sapiens, UniProt P78536, N452Q/S266A); assay: TACE kinetic assay: cleavage of internally quenched peptide substrate TNF-FRET 2 (Ki); type: biochemical; conditions: TNF-FRET 2 substrate
T1 construct: 6xHis (C); made in house; host or cells: baculovirus/Hi5 insect cells

[2] = system: TNF-α production from human whole blood; assay: Inhibition of TNF-α production from human whole blood (hWBA), LPS stimulated, ELISA; type: cell-based; conditions: Homo sapiens, 3.5 h, human whole blood diluted 1:1, LPS stimulated, 3.5 h, TNF-α by ELISA; read-out: hWBA (IC50)
[3] = Area under the curve determinations of plasma levels in rats (rrAUC), oral 10 mg/kg; type: in vivo; conditions: rat, plasma 0.5-6 h post-dosing, read-out: RR AUC (rapid rat AUC, rrAUC)

T1 sequence (P78536 215-477 S266A/N452Q): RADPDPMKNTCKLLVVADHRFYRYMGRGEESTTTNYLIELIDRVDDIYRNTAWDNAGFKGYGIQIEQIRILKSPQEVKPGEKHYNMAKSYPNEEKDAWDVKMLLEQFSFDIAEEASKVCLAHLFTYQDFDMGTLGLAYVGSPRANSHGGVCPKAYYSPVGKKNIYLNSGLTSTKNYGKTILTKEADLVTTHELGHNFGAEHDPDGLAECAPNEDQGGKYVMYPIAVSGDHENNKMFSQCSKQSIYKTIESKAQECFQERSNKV

| Compound | Ki ([1]; read-out: Ki) [nM] | IC50 [2] [nM] | AUC [3] [µM·h] | Ki ([1]; Ki) [nM] |
| --- | --- | --- | --- | --- |
| COc1ccc2c(c1)C(=O)N(C[C@@]1(c3cc4nc(-c5c(C)nn(C)c5C)ccc4o3)NC(=O)NC1=O)C2 [Compound 2105] | 0.155 | 216 | 7.54 |  |
| COc1ccc2c(c1)C(=O)N(C[C@@]1(c3cc4nc(-c5cccnc5)ccc4o3)NC(=O)NC1=O)C2 [Compound 2107] | 0.902 | 171 | 3.08 |  |
| COc1ccc2c(c1)C(=O)N(C[C@@]1(c3cc4nc(N5CCN(C)CC5)ccc4o3)NC(=O)NC1=O)C2 [Compound 2108] |  | 150 | 0.43 | 0.613 |
| COc1ccc2c(c1)C(=O)N(C[C@@]1(c3cc4nc(-c5ccncc5)ccc4o3)NC(=O)NC1=O)C2 [Compound 2110] | 0.62 | 351 | 10.5 |  |
| COc1ccc2c(c1)C(=O)N(C[C@@]1(c3cc4nc(Nc5c(C)nn(C)c5C)ccc4o3)NC(=O)NC1=O)C2 [Compound 2112] | 0.385 | 533 | 0.019 |  |
| COc1ccc2c(c1)C(=O)N(C[C@@]1(c3cc4nc(-c5cnn(CC(C)C)c5)ccc4o3)NC(=O)NC1=O)C2 [Compound 2115] | 0.193 | 968 | 0.349 |  |
| CCCn1cc(-c2ccc3oc([C@]4(CN5Cc6ccc(OC)cc6C5=O)NC(=O)NC4=O)cc3n2)cn1 [Compound 2117] | 0.408 | 1010 | 0.32 |  |
| COc1ccc2c(c1)C(=O)N(C[C@@]1(c3cc4nc(-n5nc(N)cc5C)ccc4o3)NC(=O)NC1=O)C2 [Compound 2118] |  | 3790 | 0.527 | 0.6 |
| COc1ccc2c(c1F)C(=O)N(C[C@@]1(c3cc4nc(-c5c(C)nn(C)c5C)ccc4o3)NC(=O)NC1=O)C2 [Compound 2119] | 0.39 | 243 | 7 |  |
| COc1ccc2c(c1F)C(=O)N(C[C@@]1(c3cc4nc(-c5ccncc5)ccc4o3)NC(=O)NC1=O)C2 [Compound 2122] |  | 426 | 8.18 | 0.58 |
| CCN1CCN(c2ccc3oc([C@]4(CN5Cc6ccc(OC)cc6C5=O)NC(=O)NC4=O)cc3n2)CC1 [Compound 2123] | 0.807 | 136 | 0.727 |  |
| CC[C@@H]1CN(c2ccc3oc([C@]4(CN5Cc6ccc(OC)cc6C5=O)NC(=O)NC4=O)cc3n2)CCN1 [Compound 2124] | 1.09 | 270 | 0.014 |  |
| COc1ccc2c(c1F)C(=O)N(C[C@@]1(c3cc4nc(N5CCN(C)CC5)ccc4o3)NC(=O)NC1=O)C2 [Compound 2125] | 0.5 | 144 | 1.52 |  |
| COc1ccc2c(c1)C(=O)N(C[C@@]1(c3cc4nc(Nc5cnccn5)ccc4o3)NC(=O)NC1=O)C2 [Compound 2129] | 0.395 | 750 | 1.33 |  |
| COc1ccc2c(c1)C(=O)N(C[C@@]1(c3cc4nc(Nc5cccnc5)ccc4o3)NC(=O)NC1=O)C2 [Compound 2130] |  | 163 | 0.072 | 0.629 |
| COc1ccc2c(c1)C(=O)N(C[C@@]1(c3cc4nc(Nc5ccnn5C)ccc4o3)NC(=O)NC1=O)C2 [Compound 2131] | 0.418 | 637 | 0.257 |  |
| COc1ccc2c(c1)C(=O)N(C[C@@]1(c3cc4nc(Nc5onc(C)c5C)ccc4o3)NC(=O)NC1=O)C2 [Compound 2132] |  | 3130 | 0.145 | 0.593 |
| COc1ccc2c(c1)C(=O)N(C[C@@]1(c3cc4nc(NC(=O)c5ccncc5)ccc4o3)NC(=O)NC1=O)C2 [Compound 2135] | 1.2 | 2780 | 0.56 |  |
| COc1ccc2c(c1)C(=O)N(C[C@@]1(c3cc4nc(NC5CCN(C)CC5)ccc4o3)NC(=O)NC1=O)C2 [Compound 2141] | 0.599 | 381 | 2.71 |  |
| COc1ccc2c(c1)C(=O)N(C[C@@]1(c3cc4nc(N5CCN(CCN(C)C)CC5)ccc4o3)NC(=O)NC1=O)C2 [Compound 2142] | 0.875 | 463 | 0.06 |  |

| Compound | Ki ([1]; read-out: Ki) [nM] | IC50 [2] [nM] | AUC [3] [µM·h] | Ki ([1]; Ki) [nM] |
| --- | --- | --- | --- | --- |
| COc1ccc2c(c1)C(=O)N(C[C@@]1(c3cc4nc(N(c5cccnc5)C5CCNCC5)ccc4o3)NC(=O)NC1=O)C2 [Compound 2145] |  | 174 | 0.086 | 0.547 |
| COc1ccc2c(c1F)C(=O)N(C[C@@]1(c3cc4nc(N5CCCNC5=O)ccc4o3)NC(=O)NC1=O)C2 [Compound 2146] | 0.974 | 507 | 0.522 |  |
| COc1ccc2c(c1)C(=O)N(C[C@@]1(c3cc4nc(-c5cncnc5)ccc4o3)NC(=O)NC1=O)C2 [Compound 2147] | 0.299 | 1080 | 2.19 |  |
| COc1ccc2c(c1)C(=O)N(C[C@@]1(c3cc4nc(NC5CC5)ccc4o3)NC(=O)NC1=O)C2 [Compound 2148] | 0.179 | 624 | 9.34 |  |
| COc1ccc2c(c1Cl)C(=O)N(C[C@@]1(c3cc4ncccc4o3)NC(=O)NC1=O)C2 [Compound 2153] | 1.1 | 2650 | 1.76 |  |
| COc1ccc2c(c1)C(=O)N(C[C@@]1(c3cc4nc(N5C[C@@H](O)CC5=O)ccc4o3)NC(=O)NC1=O)C2 [Compound 2154] | 0.645 | 125 | 0.393 |  |
| COc1ccc2c(c1)C(=O)N(C[C@@]1(c3cc4nc(N5C(=O)CC[C@H]5CO)ccc4o3)NC(=O)NC1=O)C2 [Compound 2156] | 0.976 | 325 | 0.033 |  |
| COc1ccc2c(c1)C(=O)N(C[C@@]1(c3cc4nc(N5C[C@H](O)CC5=O)ccc4o3)NC(=O)NC1=O)C2 [Compound 2158] | 0.545 | 180 | 1.19 |  |
| COc1ccc2c(c1)C(=O)N(C[C@@]1(c3cc4nc(N5CC[C@H](O)C5=O)ccc4o3)NC(=O)NC1=O)C2 [Compound 2159] | 0.935 | 331 | 0.527 |  |
| COc1ccc2c(c1)C(=O)N(C[C@@]1(c3cc4nc(N5C(=O)CCC5C)ccc4o3)NC(=O)NC1=O)C2 (stereo partly drawn) [Compound 2161] | 0.54 | 186 | 4.79 |  |
| COc1ccc2c(c1)C(=O)N(C[C@@]1(c3cc4nc(N5CCOCC5)ccc4o3)NC(=O)NC1=O)C2 [Compound 2163] | 0.563 | 1120 | 3.64 |  |
| COc1ccc2c(c1)C(=O)N(C[C@@]1(c3cc4nc(-n5ccnc5)ccc4o3)NC(=O)NC1=O)C2 [Compound 2164] | 0.557 | 168 | 0.534 |  |
| COc1ccc2c(c1)C(=O)N(C[C@@]1(c3cc4nc(-n5cccn5)ccc4o3)NC(=O)NC1=O)C2 [Compound 2165] |  | 1370 | 21 | 0.405 |
| COc1ccc2c(c1)C(=O)N(C[C@@]1(c3cc4nc(N5CC[C@@H](O)C5)ccc4o3)NC(=O)NC1=O)C2 [Compound 2166] | 0.276 | 141 | 0.6 |  |
| COc1ccc2c(c1)C(=O)N(C[C@@]1(c3cc4nc(N5CCCCC5)ccc4o3)NC(=O)NC1=O)C2 [Compound 2168] | 0.34 | 885 | 3.53 |  |
| COc1ccc2c(c1)C(=O)N(C[C@@]1(c3cc4nc(Nc5ncccn5)ccc4o3)NC(=O)NC1=O)C2 [Compound 2169] | 0.576 | 920 | 4.83 |  |
| COc1ccc2c(c1)C(=O)N(C[C@@]1(c3cc4nc(N5CCC[C@@H](O)C5)ccc4o3)NC(=O)NC1=O)C2 [Compound 2170] |  | 189 | 0.414 | 0.415 |
| COc1ccc2c(c1)C(=O)N(C[C@@]1(c3cc4nc(N5CCCC5=O)ccc4o3)NC(=O)NC1=O)C2 [Compound 2171] | 0.67 | 487 | 9.1 |  |
| COc1ccc2c(c1)C(=O)N(C[C@@]1(c3cc4nc(N5CCC5=O)ccc4o3)NC(=O)NC1=O)C2 [Compound 2173] | 0.955 | 243 | 2.54 |  |
| COc1ccc2c(c1)C(=O)N(C[C@@]1(c3cc4cc(CNCCN(C)C)ccc4o3)NC(=O)NC1=O)C2 [Compound 2177] | 0.711 | 278 | 0.069 |  |

Source: patent US8569336B2, “Compounds for the treatment of inflammatory disorders” (priority 2008, dated 2013)
